Source: article PMC10349806 (Nature Communications, 2023)
Where a chain is given by its changes, count along the chain named. Where “and” joins values, the source holds several entries; their conditions need not be identical. Equal values may be shown once.

Columns and labels:
PfCRT variant Y89A = biological target: T1, PfCRT variant Y89A (Plasmodium falciparum, UniProt Q9N623, A220S/I356T/K76T/M74I/N326S/N75E/Q271E/R371I/Y89A); test: CQ uptake assay, oocytes expressing Y89A; assay type: cell-based
T1 sequence (Q9N623 1-424 M74I/N75E/K76T/Y89A/A220S/Q271E/N326S/I356T/R371I): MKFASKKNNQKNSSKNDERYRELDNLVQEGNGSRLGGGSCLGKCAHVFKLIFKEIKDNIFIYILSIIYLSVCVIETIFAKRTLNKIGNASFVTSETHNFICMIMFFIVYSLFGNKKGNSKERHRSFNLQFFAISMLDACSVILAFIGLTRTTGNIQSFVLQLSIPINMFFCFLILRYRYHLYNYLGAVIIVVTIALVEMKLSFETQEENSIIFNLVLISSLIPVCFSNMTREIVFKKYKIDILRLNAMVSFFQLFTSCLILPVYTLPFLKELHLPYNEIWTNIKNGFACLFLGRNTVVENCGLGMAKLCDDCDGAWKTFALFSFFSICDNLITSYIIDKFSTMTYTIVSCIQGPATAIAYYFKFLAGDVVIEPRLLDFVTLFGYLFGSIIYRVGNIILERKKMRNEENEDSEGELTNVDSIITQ
Protocol: (§1) Site-directed mutagenesis of PfCRT^Dd2 was performed as described using the megaprimer method with overlap extension[21],[54]. The primer pairs used are listed in Supplementary Table 6. Please note that a codon-optimized and oocyte-adapted version of PfCRT^Dd2 was used[22] (Supplementary Fig. 16). The resulting DNA fragment was cloned into the SP64T expression vector and verified by sequencing.
(§2) Oocytes were obtained as described previously. Briefly, adult (>2 years old) female X. laevis frogs (NASCO) were anesthetized in a cooled solution of ethyl 3-amino benzoate methanesulfonate (0.1%, w/v), followed by a surgical removal of parts of the ovary. The ovary lobes were carefully dissected and small pieces of oocytes were incubated in Ca^2+-free ND96 buffer (96 mM NaCl, 2 mM KCl, 1 mM MgCl2 buffered with 5 mM HEPES/NaOH, pH 7.5) supplemented with collagenase D (0.1%, w/v; Roche), BSA (0.5%, w/v), and 9 mm Na2HPO4 at 18 °C for 14-16 h while gentle shaking. After incubation, the oocytes were carefully washed several times with ND96 buffer (96 mM NaCl, 2 mM KCl, 1.8 mM CaCl2, 1 mM MgCl2 buffered with 5 mM HEPES/NaOH, pH 7.5) supplemented with 100 mg l^−1 gentamycin). Defolliculated and healthy-looking stage V-VI oocytes were manually selected for RNA microinjection. The RNA was generated as following: The codon-optimized sequences of PfCRT variants were cloned into the pSP64T expression vector. After vector linearization using the restriction endonucleases BamHI or SalI (New England Biolabs), transcription was performed using the in vitro SP6 mMessage mMachine Kit (Ambion)[34]. The obtained RNA was kept at −80 °C and diluted with nuclease-free water to a concentration of 0.6 μg μl^−1. Precision-bore glass capillary tubes (3.5-inch glass capillaries; Drummond Scientific Co.) were pulled on a vertical puller (P-87 Flaming/Brown micropipette puller, Sutter Instrument Co.), graduated, and placed on a microinjector (Nanoject II Auto-Nanoliter Injector, Drummond Scientific Co.). 50 nl of nuclease-free water alone (control oocytes) or 50 nl of 0.6 μg μl^−1 RNA were injected under stereomicroscopic control. Injected oocytes were incubated for 46–72 h at 18 °C with twice-daily buffer changes before usage in experiments.
(§3) Drug uptake assays were performed as described previously[21],[22],[24],[34]. […] The direction of radio-labeled drug transport is here from the mostly acidic extracellular solution (pH 4.5 or 6.0, as indicated) into the oocyte cytosol (pH ∼ 7.2), which corresponds to the efflux of drug from the acidic digestive vacuole (pH 5.2) into the parasite cytoplasm (pH 7.2). The topology of PfCRT in the oolemma is such that both the N- and C-terminus face the extracellular milieu[3],[22]. In the parasite, the N- and C-terminus face the lumen of the digestive vacuole. […] For determination of the amount of drug uptake for each oocyte, the reaction medium was removed and the oocytes were washed three times with 2 ml of ice-cold ND96 buffer. Each oocyte was individually transferred to a scintillation vial containing 5% sodium dodecyl sulfate (200 μl) for lysis. […] Oocytes that were injected with water instead of RNA were analyzed in parallel, representing the uptake of a drug by diffusion and/or endogenous permeation pathways. […] The specific PfCRT-mediated uptake was determined by subtracting the corresponding background value measured in water-injected oocytes from that of PfCRT-expressing oocytes. […]

PfCRT variant E208A = biological target: T2, PfCRT variant E208A (Plasmodium falciparum, UniProt Q9N623, A220S/E208A/I356T/K76T/M74I/N326S/N75E/Q271E/R371I); test: CQ uptake assay, oocytes expressing E208A; assay type: cell-based
T2 sequence (Q9N623 1-424 M74I/N75E/K76T/E208A/A220S/Q271E/N326S/I356T/R371I): T1 sequence (Q9N623 1-424 M74I/N75E/K76T/Y89A/A220S/Q271E/N326S/I356T/R371I) with A89Y, E208A
Protocol: as §1, §2, §3

[1] = pH 4.5, single replicates, Fig 1d left
[2] = pH 6.0, single replicates, Fig 1d left

SMILES: CCN(CC)CCCC(C)Nc1ccnc2cc(Cl)ccc12 (stereo not shown) [CQ, chloroquine]
- Activity at pH 4.5 (PfCRT variant Y89A; Y89A, 50 µM CQ, 1 h, mean ± SEM): 0.73 ± 0.05 pmol h-1 oocyte-1
- R-value (PfCRT variant Y89A; Y89A, CQ transport at pH 4.5 / pH 6.0): 0.43 ± 0.06
- Y89A transport activity pH 4.5 (PfCRT variant Y89A; [1]): 0.79 pmol oocyte-1 h-1 and 0.80 pmol oocyte-1 h-1 and 0.60 pmol oocyte-1 h-1
- Y89A R-value (PfCRT variant Y89A; pH 4.5 vs pH 6.0, Fig 1d left): 0.47 and 0.40 and 0.37
- Y89A transport activity pH 6.0 (PfCRT variant Y89A; [2]): 1.68 pmol oocyte-1 h-1 and 1.99 pmol oocyte-1 h-1 and 1.64 pmol oocyte-1 h-1
- Activity at pH 6.0 (PfCRT variant E208A; E208A, 50 µM CQ, 1 h, mean ± SEM): 5.43 ± 0.38 pmol h-1 oocyte-1
- R-value (PfCRT variant E208A; E208A, CQ transport at pH 4.5 / pH 6.0): 0.48 and 0.48 ± 0.05
- E208A transport activity pH 4.5 (PfCRT variant E208A; [1]): 3.17 pmol oocyte-1 h-1 and 3.09 pmol oocyte-1 h-1 and 1.68 pmol oocyte-1 h-1
- E208A R-value (PfCRT variant E208A; pH 4.5 vs pH 6.0, Fig 1d left): 0.52 and 0.55 and 0.37
- E208A transport activity pH 6.0 (PfCRT variant E208A; [2]): 6.15 pmol oocyte-1 h-1 and 5.57 pmol oocyte-1 h-1 and 4.57 pmol oocyte-1 h-1
